For 6 compounds, melting point results are on record in patent US20020031816A1, “METHOD OF INHIBITION OF HUMAN GLYCOGEN PHOSPHORYLASE” (priority 1998, published 2002).

On to `CCN1C(=O)C(C(=O)Nc2cccc(C(=O)NC3CCCCC3)c2)c2cc(C(C)=O)ccc21` (stereo not drawn) [Preparation 2, 5-Acetyl-1-ethyl-2-oxo-2,3-dihydro-1H-indole-3-carboxylic acid (3-cyclohexylcarbamoyl-phenyl)-amide], for which the melting point is 180 °C (dec.). As for `CCN1C(=O)C(C(=O)Nc2cccc(C(=O)Nc3ccc(Cl)cc3)c2)c2cc(C(C)=O)ccc21` (stereo not drawn) [Preparation 3, 5-Acetyl-1-ethyl-2-oxo-2,3-dihydro-1H-indole-3-carboxylic acid [3-(4-chloro-phenylcarbamoyl)-phenyl]-amide], the melting point is 119 to 121 °C. As for `CCN1C(=O)C(C(=O)Nc2cccc(C(=O)Nc3ccc(Br)cc3)c2)c2cc(C(C)=O)ccc21` (stereo not drawn) [Preparation 8, 5-Acetyl-1-ethyl-2-oxo-2,3-dihydro-1H-indole-3-carboxylic acid [3-(4-bromo-phenylcarbamoyl)-phenyl]-amide], the figure is 117 to 120 °C; as for `CCN1C(=O)C(C(=O)Nc2cccc(C(=O)Nc3ccc(I)cc3)c2)c2cc(C(C)=O)ccc21` (stereo not drawn) [Preparation 9, 5-Acetyl-1-ethyl-2-oxo-2,3-dihydro-1H-indole-3-carboxylic acid [3-(4-iodo-phenylcarbamoyl)-phenyl]-amide], 205 to 210 °C. `CCN1C(=O)C(C(=O)Nc2cccc(C(=O)Nc3ccccc3)c2)c2cc(C(=O)c3ccccc3)ccc21` (stereo not drawn) [Preparation 10, 5-Benzoyl-1-ethyl-2-oxo-2,3-dihydro-1H-indole-3-carboxylic acid (3-phenylcarbamoyl-phenyl)-amide]: the melting point lay in the range of 129 to 135 °C. As for `CC(=O)c1ccc2c(c1)C(C(=O)Nc1cccc(C(=O)Nc3ccccc3)c1)C(=O)N2C` (stereo not drawn) [Preparation 12, 5-Acetyl-1-methyl-2-oxo-2,3-dihydro-1H-indole-3-carboxylic acid (3-phenylcarbamoyl-phenyl)-amide], the melting point was 178 to 179 °C.
